IC50 data for eleven molecules are collected here from patent US7807719B2, “Compounds useful for modulating abnormal cell proliferation” (priority 2004, dated 2010).

Holding throughout (type): cell-based
Assay [1] relates to normal bone marrow cells (BFU-E). Nature of the assay: Effect upon normal bone marrow differentiation in culture (CFU-GEMM assay, BFU-E colonies). The note with it: Bone marrow cell, 336 h, BFU-E colonies evaluated at 14 days, read-out: NBM (BFU-E) IC50. On the procedure:
The CFU-GEMM assay was performed according to Fauser and Messner (1978, Blood, 52(6) 143-8) and Messner and Fausser (1980, Blut, 41(5) 327-33) with some variations. In brief, heparinized bone marrow cells were layered over Percoll (1.077 gm/ml) (Pharmacia Fine Chemical, Piscataway N.J.) and centrifuged at 400 g at 4° C. for 10 minutes to remove neutrophils and RBCs. The fractionated BM cells at 2×10^5 cells/ml were cultured in IMDM (OCI, Toronto) containing 0.9% (vol/vol) methylcellulose supplemented with 30% FCS (Cansera Rexdale, ON.) or normal human plasma, a cocktail of cytokines containing G-CSF (10 ng/ml, Amgen), IL-3 (40 U/ml, Immunex), MGF (50 ng/ml, Immunex), Erythropoietin (2 u/ml, Epprex) or TPO (10 ng/ml, Amgen), 5×10^−5 M β-2-mercaptoethanol and the specified concentration of CR4. The culture mixture was plated in 1 ml volumes into 35 mm petri dishes and incubated at 37° C., 5% CO2 in a humidified atmosphere. All cultures were evaluated at 14 days for the number of BFU-E colonies (defined as aggregates of more than 500 hemoglobinized cells or, 3 or more erythroid subcolonies), OFU-GM colonies (defined as granulocyte or monocyte-macrophage cells or both), CFU-Meg colonies (comprising 4 or more megakaryocytes) and CFU-GEMM colonies (a mixed population comprising of all elements).

The test system of assay [2] is Z119 cells. Nature of the assay: Killing of Philadelphia positive Z119 acute lymphoblastic leukemia cells in culture (colony assay). The note with it: Z119 Philadelphia positive ALL cells, methylcellulose colony count at 7-9 days; read-out: ALL (Z 119) IC50. Here is the method: Z119 cells were plated in 1 ml volumes at a density of 5×10^4 cells/ml, in the absence of exogenous growth factors, into 35 mm petri dishes (Nunc, Gibco) containing IMDM (OCI, Toronto) plus 20% FCS (Cansera Rexdale, ON.) in 0.9% (vol/vol) methylcellulose (Fluka, Switzerland) with the indicated concentration of for various test compounds described above. Cultures were set at 37° C., 5% CO2 in a humidified atmosphere. Colonies consisting of more than 20 cells were counted at 7-9 days using an inverted microscope.

Assay [3] has as its system C1 cells. Nature of the assay: Killing of Philadelphia negative C1 acute lymphoblastic leukemia cells in culture (colony assay). To be noted: C1 Philadelphia negative ALL cells, methylcellulose colony count in 5-7 days. Here is the method:
C1 (at 2×10^4 cells/ml) were plated in 1 ml volumes, in the absence of exogenous growth factors, into 35 mm Petri dishes (Nunc, Gibco) containing alpha MEM (Gibco) plus 10% FCS (Cansera Rexdale, Ont.) in 0.9% (vol/vol) methylcellulose (Fluka, Switzerland). Cultures were set up at 37° C. with 5% CO2 in a humidified atmosphere. Colonies consisting of more than 20 cells were counted in 5-7 days using an inverted microscope. For further information, see Leukemia, Vol. 6, No. 1, 1992, pg. 8-17 and Nature, Vol. 379, 15 Feb. 1996.

Assay [4] has as its system OCI-AML-3 cells. Nature of the assay: Killing of AML-3 acute myeloid leukemia cells in culture (colony assay). To be noted: Homo sapiens, methylcellulose colony count at 5-6 days. On the procedure: OCI-AML-3 cells were plated in 35 mm petri dishes (Nunc, Gibco) in 1 ml volumes at a density of 3.3×10^3 cells/ml, in the absence of exogenous growth factors, containing alpha MEM plus 30% FCS (Cansera, Rexdale Ont.), and 0.9% (vol/vol) methylcellulose (Fluka, Switzerland) and the indicated concentrations of for various test compounds described above. Cell cultures were incubated in a humidified atmosphere at 37° C. with 5% CO2. Colonies containing more than 20 cells were scored, using an inverted microscope, at 5-6 days.

A word on the IC50: it is the concentration that gives 50% inhibition.

Bounds are passed on as bounds.

Turning to `N#C/C(=C\C=C\c1ccco1)C(=O)NCc1ccc(O)c(O)c1` [CRH-48, 2-cyano-5-furan-2-yl-penta-2E,4E-dienoic acid 3,4-dihydroxybenzylamide], the IC50 in assay [1] was not above 10000 nM; in assay [2] it was 250 to 500 nM; in assay [3], not below 250 nM; in assay [4], 230 nM.

Consider `N#C/C(=C\C=C\c1cccs1)C(=O)NCc1ccc(O)c(O)c1` [CRH-60, 2-cyano-5-thiophen-2-yl-penta-2E,4E-dienoic acid 3,4-dihydroxybenzylamide], for which the IC50 in assay [1] is 7100 nM; in assay [2], less than 500 nM.

On to `N#C/C(=C\C=C\c1cccnc1)C(=O)NCc1ccccc1` [CRH-59, 2-cyano-5-pyridin-3-yl-penta-2E,4E-dienoic acid benzylamide], for which the IC50 in assay [1] was more than 10000 nM; in assay [2] it was more than 1000 nM.

For `N#C/C(=C\C(Cl)=C\c1ccccc1)C(=O)NCc1ccc(O)c(O)c1` [CRC-47, 4-chloro-2-cyano-5-phenyl-penta-2E,4Z-dienoic acid 3,4-dihydroxybenzylamide], the IC50 was less than 5000 nM in assay [1] and less than 125 nM in assay [2].

As for `N#C/C(=C\c1ccc(/C=C/c2ccccc2)cc1)C(=O)NCc1ccncc1` [CRS-75, 2-cyano-N-pyridin-4-ylmethyl-3-(4-trans-styrylphenyl)-E-acrylamide], the IC50 in assay [1] was more than 10000 nM; in assay [2] it was more than 1000 nM; in assay [3], not below 500 nM; in assay [4], not below 500 nM.

In the case of `N#C/C(=C\c1ccc(/C=C/c2ccncc2)cc1)C(=O)NCc1ccncc1` [CRS-77, 2-cyano-N-pyridin-4-ylmethyl-3-[4-(2-pyridin-4-yl-trans-vinyl)phenyl]-E-acrylamide], the results for the IC50 in assay [1] and in assay [2] were more than 10000 nM and more than 1000 nM, respectively.

For the molecule `N#C/C(=C\C=C\c1cc(O)ccc1O)C(=O)NCc1ccccc1` [CRO-70, 2-Cyano-5-(2,5-dihydroxyphenyl)penta-2E,4E-dienoic acid benzylamide], the half-inhibitory concentration (IC50) is 6900 nM in assay [1], 260 nM in assay [2], more than 500 nM in assay [3] and more than 500 nM in assay [4].

Turning to `N#C\C(=C/C=C/C=C/c1ccc(O)c(O)c1)C(=O)NCc1ccccc1` [CRT-88, 2-Cyano-7-(3,4-dihydroxyphenyl)hepta-2E,4E,6E-trienoic acid benzyl-amide], the IC50 in assay [1] is 3100 to 5400 nM; in assay [2], less than 500 nM.

As to `COc1cc(/C=C/C=C/C=C(\C#N)C(=O)NCc2ccc(O)c(O)c2)ccc1O` [CRT-67, 2-cyano-7-(4-hydroxy-3-methoxyphenyl)hepta-2E,4E,6E-trienoic acid 3,4-dihydroxybenzylamide], the IC50 in assay [1] is 10200 nM; in assay [2], not above 500 nM; in assay [3] it was more than 500 nM; in assay [4], more than 500 nM.

Take `N#C/C(=C\C=C\c1cccnc1)C(=O)NCc1ccc(O)c(O)c1` [CRH-58, 2-cyano-5-pyridin-3-yl-penta-2E,4E-dienoic acid 3,4-dihydroxybenzylamide]: the IC50 was 7500 to 9800 nM in assay [1], 260 nM in assay [2], more than 500 nM in assay [3] and more than 500 nM in assay [4].

On to `N#C/C(=C\c1ccc(/C=C/c2ccncc2)cc1)C(=O)NCc1ccc(O)c(O)c1` [CRS-76, 2-cyano-N-(3,4-dihydroxybenzyl)-3-[4-(2-pyridin-4-yl-trans-vinyl)-phenyl]-E-acrylamide], for which the concentration for half-maximal inhibition (IC50) in assay [1] is more than 10000 nM; in assay [2] it was more than 1000 nM.
